{"source": "patent US20080051463A1", "about": "“ANTHRACENE COMPOUNDS AND THEIR USE FOR TREATING BENIGN AND MALIGNANT TUMOR DISORDERS” (AETERNA ZENTARIS GmbH, priority 2006, published 2008)", "key": {"[1]": {"target": "T1, complete recombinant KIF5A (Homo sapiens, UniProt Q12840)", "T1 construct": "Here, use was made of complete recombinant KIF5A", "T1 sequence (Q12840 1-1032)": "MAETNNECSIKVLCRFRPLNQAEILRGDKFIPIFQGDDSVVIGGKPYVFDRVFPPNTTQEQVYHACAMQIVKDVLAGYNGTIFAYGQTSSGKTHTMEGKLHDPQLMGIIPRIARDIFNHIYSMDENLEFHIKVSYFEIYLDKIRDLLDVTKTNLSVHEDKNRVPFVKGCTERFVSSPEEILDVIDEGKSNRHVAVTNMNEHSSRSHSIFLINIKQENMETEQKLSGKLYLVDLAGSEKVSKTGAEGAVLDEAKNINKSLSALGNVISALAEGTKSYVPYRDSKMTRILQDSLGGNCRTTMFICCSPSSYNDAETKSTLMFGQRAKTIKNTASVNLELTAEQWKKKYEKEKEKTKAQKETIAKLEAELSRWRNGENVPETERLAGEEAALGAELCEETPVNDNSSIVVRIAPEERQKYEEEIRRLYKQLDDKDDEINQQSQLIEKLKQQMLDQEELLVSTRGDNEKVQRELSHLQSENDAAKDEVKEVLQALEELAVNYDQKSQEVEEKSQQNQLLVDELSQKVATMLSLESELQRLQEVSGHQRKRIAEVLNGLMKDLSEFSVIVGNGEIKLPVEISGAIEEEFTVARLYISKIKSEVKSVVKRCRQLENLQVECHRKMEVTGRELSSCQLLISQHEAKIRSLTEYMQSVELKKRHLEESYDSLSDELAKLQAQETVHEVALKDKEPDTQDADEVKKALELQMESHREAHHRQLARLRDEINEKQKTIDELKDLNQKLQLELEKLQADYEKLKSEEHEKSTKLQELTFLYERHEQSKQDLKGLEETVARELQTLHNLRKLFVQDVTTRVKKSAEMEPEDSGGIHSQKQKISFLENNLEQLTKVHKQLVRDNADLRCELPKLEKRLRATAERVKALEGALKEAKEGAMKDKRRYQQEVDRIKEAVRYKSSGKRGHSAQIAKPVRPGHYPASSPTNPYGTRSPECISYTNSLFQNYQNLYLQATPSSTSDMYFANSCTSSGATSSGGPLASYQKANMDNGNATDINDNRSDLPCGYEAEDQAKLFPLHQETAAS", "assay": "Inhibition of KIF5A ATPase activity (end-point assay)", "format": "biochemical", "conditions": "microtubulus-activatable ATPase", "method": "In an in vitro test, compound 1 was examined for inhibition of KIF5A ATPase activity. Here, use was made of complete recombinant KIF5A (Niclas J, Navone F, Hom-Booher N, Vale R D Neuron 1994, 12:1059-1072).\nThe activity of the microtubulus-activatable ATPase was determined by end-point assay. For tubulin isolation and preparation of the microtubuli see citations in Example II) b).\nTable 6 states the EC50 value of the ATPase inhibition of KIF5A by compound 1 according to the invention."}, "[2]": {"tested_on": "RKOp27 human colon carcinoma cells, p27kiP1 induced", "assay": "Proliferation test, RKOp27 cell system with induced p27kiP1 expression", "format": "cell-based", "conditions": "RKOp27 with induced expression of p27kiP1, read-out: RKOP27ind EC50", "text": "The antiproliferative activity of the compounds 1, 2, 4, 6, 7, 9, 10, 11, 12 and 13 according to the invention was investigated in a proliferation test performed on established tumor cell lines (D. A. Scuderio et al. Cancer Res. 1988, 48: 4827-4833).\nThe test used determines the cellular dehydrogenase activity and makes it possible to determine cell viability and determine cell number indirectly.\nThe cell lines used are the human cervical carcinoma cell line KB/HeLa (ATCC CCL17), the ovarian adenocarcinoma cell line SKOV-3 (ATCC HTB77), the human glioblastoma cell line SF-268 (NCI-503138) and the lung carcinoma cell line NCI-H460 (NCI-503473). In addition, an RKOp27 cell system was used for investigating the cell cycle-specific effect of the substance (M. Schmidt et al. Oncogene 2000, 19(20): 2423-9).\nRKO is a human colon carcinoma line in which expression of the cell cycle inhibitor p27^kiP1 can be induced using the ecdysone expression system and lead to cell cycle arrest specifically in […].\nBy contrast, cell cycle-specific substances, such as, for example, tubulin inhibitors, are only cytotoxic when cells are not arrested and the cell cycle is passed through."}, "[3]": {"tested_on": "T2, porcine brain tubulin", "T2 construct": "In addition to tubulin, the protein used comprises about 15% of associated proteins (MAPs)", "assay": "Inhibition of the polymerization of porcine brain tubulin (turbidimetric)", "format": "biochemical", "conditions": "porcine brain tubulin with about 15% MAPs, GTP, 37° C.", "method": "b) In an in vitro test, the compounds 1, 2, 4 and 7 were tested for inhibition of the polymerization of porcine brain tubulin. In this test, tubulin purified by polymerization and depolymerization cycles is used (Shelanski et al. Proc. Natl. Acad. Sci. U.S.A. 1973, 70, 765-768 modified according to Vater et al. Acta Histochem. Suppl. 1986, 33, 123-129), which is polymerized by addition of GTP and heating to 37° C. In addition to tubulin, the protein used comprises about 15% of associated proteins (MAPs). The measurement values were determined turbidimetrically according to Gaskin et al. J. Mol. Biol. 89 (1974) 737-755.\nTable 3 states the EC50 value of the polymerization inhibition."}}, "data": [{"smiles": "O=C(C=C1c2ccccc2C(=O)c2ccccc21)c1ccc(O)c(O)c1", "note": "[Compound 1, 10-[2-(3,4-dihydroxy-phenyl)-2-oxo-ethylidene]-10H-anthracen-9-one]", "values": [{"measurement": "EC50", "setting": "[1]", "value": 61.9, "unit": "µM"}, {"measurement": "EC50", "setting": "[2]", "value": "> 3.16", "unit": "mg/L"}, {"measurement": "EC50 of the polymerization inhibition", "setting": "[3]", "value": 3.0, "unit": "mg/L"}]}]}
